For eight compounds, Binding % results are on record in patent US10646488B2 (Araxes Pharma LLC, priority 2016, dated 2020).

In the test the target is T1, KRAS G12C 1-169, his-tagged protein, GDP-loaded (Homo sapiens, UniProt P01116, G12C).
T1 construct: KRAS G12C 1-169, his-tagged protein, GDP-loaded
The test is described as follows: Covalent binding (% modification) to KRAS G12C by mass spectrometry. Also: test concentration or dose not given here. Conditions: covalent binding to KRAS G12C after a three minute incubation period.

Turning to `C=CC(=O)N1C[C@H](C)N(c2nc(N3CC4(CCCN(C5CC5)C4)C3)nc3c(F)c(-c4c(O)cccc4F)c(Cl)cc23)C[C@H]1C` [Compound 195, 1-((2R,5S)-4-(6-chloro-2-(6-cyclopropyl-2,6-diazaspiro[3.5]nonan-2-yl)-8-fluoro-7-(2-fluoro-6-hydroxyphenyl)quinazolin-4-yl)-2,5-dimethyl-piperazin-1-yl) prop-2-en-1-one], the Binding % result is “+ (+ indicates binding activity greater than 0% and up to 50%)”.
The entry for `[2H]C([2H])([2H])N(C1CN(c2nc(N3C[C@@H](C)N(C(=O)C=C)C[C@@H]3C)c3cc(Cl)c(-c4c(O)cccc4F)c(F)c3n2)C1)C([2H])([2H])[2H]` [Compound 196, 1-((2R,5S)-4-(2-(3-(bis (trideuteromethyl)amino)azetidin-1-yl)-6-chloro-8-fluoro-7-(2-fluoro-6-hydroxyphenyl)quinazolin-4-yl)-2,5-dimethyl-piperazin-1-yl) prop-2-en-1-one] is “+++ (+++ indicates binding activity greater than 90%)”; for `C=CC(=O)N1C[C@H](C)N(c2nc(OCCc3ncccn3)nc3c(F)c(-c4c(C)ccc5[nH]ncc45)c(Cl)cc23)C[C@H]1C` [Compound 197, 1-((2R,5S)-4-(6-chloro-8-fluoro-7-(5-methyl-1H-indazol-4-yl)-2-(2-(pyrimidin-2-yl)ethoxy)quinazolin-4-yl)-2,5-dimethyl-piperazin-1-yl) prop-2-en-1-one] it is “+++ (+++ indicates binding activity greater than 90%)”.
The entry for `C=CC(=O)N1C[C@H](C)N(c2nc(OCCc3ncccn3)nc3c(F)c(-c4c(O)cccc4F)c(Cl)cc23)C[C@H]1C` [Compound 198, 1-((2R,5S)-4-(6-chloro-8-fluoro-7-(2-fluoro-6-hydroxyphenyl)-2-(2-(pyrimidin-2-yl)ethoxy)quinazolin-4-yl)-2,5-dimethyl-piperazin-1-yl) prop-2-en-1-one] is “+++ (+++ indicates binding activity greater than 90%)”; for `C=CC(=O)N1C[C@H](C)N(c2nc(OCCCN(C)C)nc3c(F)c(-c4c(C)ccc5[nH]ncc45)c(Cl)cc23)C[C@H]1C` [Compound 199, 1-((2R,5S)-4-(6-chloro-2-(3-(dimethylamino)propoxy)-8-fluoro-7-(5-methyl-1H-indazol-4-yl)quinazolin-4-yl)-2,5-dimethyl-piperazin-1-yl) prop-2-en-1-one] it is “++ (++ indicates binding activity from 50 to 90%)”; for `C=CC(=O)N1C[C@H](C)N(c2nc(N3CC4(CCN(C5CC5)CC4)C3)nc3c(F)c(-c4c(C)ccc5[nH]ncc45)c(Cl)cc23)C[C@H]1C` [Compound 200, 1-((2R,5S)-4-(6-chloro-2-(7-cyclopropyl-2,7-diazaspiro[3.5]nonan-2-yl)-8-fluoro-7-(5-methyl-1H-indazol-4-yl)quinazolin-4-yl)-2,5-dimethyl-piperazin-1-yl) prop-2-en-1-one] it is “++ (++ indicates binding activity from 50 to 90%)”.
The result for `C=CC(=O)N1C[C@H](C)N(c2nc(OCCN3CCC(F)(F)C3)nc3c(F)c(-c4cc(O)cc5ccccc45)c(Cl)cc23)C[C@H]1C` [Compound 201, 1-((2R,5S)-4-(6-chloro-2-(2-(3,3-difluoropyrrolidin-1-yl)ethoxy)-8-fluoro-7-(3-hydroxynaphthalen-1-yl)quinazolin-4-yl)-2,5-dimethyl-piperazin-1-yl) prop-2-en-1-one] reads “++ (++ indicates binding activity from 50 to 90%)”.
Regarding `C=CC(=O)N1C[C@H](C)N(c2nc(OCCN3CCC(F)(F)C3)nc3c(F)c(-c4c(C)ccc5cn[nH]c45)c(Cl)cc23)C[C@H]1C` [Compound 202, 1-((2R,5S)-4-(6-chloro-2-(2-(3,3-difluoro-pyrrolidin-1-yl)ethoxy)-8-fluoro-7-(6-methyl-1H-indazol-7-yl)quinazolin-4-yl)-2,5-dimethyl-piperazin-1-yl) prop-2-en-1-one], the Binding % result is “+++ (+++ indicates binding activity greater than 90%)”.
